{"source": "PubChem BioAssay (NCI)", "test_in_all_cases": "NCI anticancer screen, dose series, 48 h", "key": {"[1]": {"tested_on": "SK-MEL-2 melanoma"}, "[2]": {"tested_on": "KM12 colon"}, "[3]": {"tested_on": "MDA-MB-231 breast"}, "[4]": {"tested_on": "HOP-62 NSCLC"}, "[5]": {"tested_on": "MOLT-4 leukemia"}, "[6]": {"tested_on": "OVCAR-4 ovarian"}, "[7]": {"tested_on": "MDA-N"}, "[8]": {"tested_on": "LOX IMVI melanoma"}, "[9]": {"tested_on": "SF-268 CNS"}, "[10]": {"tested_on": "HCC-2998 colon"}, "[11]": {"tested_on": "HT29 colon"}, "[12]": {"tested_on": "786-0 renal"}, "[13]": {"tested_on": "IGROV1 ovarian"}, "[14]": {"tested_on": "SF-539 CNS"}, "[15]": {"tested_on": "ACHN renal"}, "[16]": {"tested_on": "SR leukemia"}, "[17]": {"tested_on": "BT-549 breast"}, "[18]": {"tested_on": "HCT-15 colon"}, "[19]": {"tested_on": "SN12C renal"}, "[20]": {"tested_on": "NCI-H226 lung"}, "[21]": {"tested_on": "RPMI-8226 leukemia"}, "[22]": {"tested_on": "M14 melanoma"}, "[23]": {"tested_on": "UO-31 renal"}, "[24]": {"tested_on": "HL-60(TB) leukemia"}, "[25]": {"tested_on": "HOP-92 NSCLC"}, "[26]": {"tested_on": "HS 578T breast"}, "[27]": {"tested_on": "CAKI-1 renal"}, "[28]": {"tested_on": "OVCAR-8 ovarian"}, "[29]": {"tested_on": "SK-MEL-28 melanoma"}, "[30]": {"tested_on": "U251 CNS"}, "[31]": {"tested_on": "SF-295 CNS"}, "[32]": {"tested_on": "A549 NSCLC"}, "[33]": {"tested_on": "HCT-116 colon"}, "[34]": {"tested_on": "TK-10 renal"}, "[35]": {"tested_on": "OVCAR-5 ovarian"}, "[36]": {"tested_on": "T-47D breast"}, "[37]": {"tested_on": "A498 renal"}, "[38]": {"tested_on": "UACC-257 melanoma"}, "[39]": {"tested_on": "EKVX NSCLC"}, "[40]": {"tested_on": "NCI-H460 lung"}, "[41]": {"tested_on": "NCI/ADR-RES ovarian"}, "[42]": {"tested_on": "SNB-19 CNS"}, "[43]": {"tested_on": "MDA-MB-435"}, "[44]": {"tested_on": "K-562 leukemia"}, "[45]": {"tested_on": "CCRF-CEM leukemia"}, "[46]": {"tested_on": "OVCAR-3 ovarian"}, "[47]": {"tested_on": "SW-620 colon"}, "[48]": {"tested_on": "NCI-H23 lung"}, "[49]": {"tested_on": "DU-145 prostate"}, "[50]": {"tested_on": "SK-MEL-5 melanoma"}, "[51]": {"tested_on": "UACC-62 melanoma"}, "[52]": {"tested_on": "COLO 205 colon"}, "[53]": {"tested_on": "PC-3 prostate"}, "[54]": {"tested_on": "SNB-75 CNS"}, "[55]": {"tested_on": "MCF7 breast"}}, "note": "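Protocol summary: plate cells (96-well), add compound at 5 concentrations, incubate 48 h, interpolate endpoints linearly. The concentration for full growth arrest is given as TGI.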"}
{"smiles": "O=c1c(-c2ccccc2)c2n(c3ccccc13)CCN2", "values": [{"measurement": "TGI", "setting": "[1]", "result": 61.1, "unit": "µM"}, {"measurement": "TGI", "setting": "[2]", "result": "> 100", "unit": "µM"}, {"measurement": "TGI", "setting": "[3]", "result": "> 100", "unit": "µM"}, {"measurement": "TGI", "setting": "[4]", "result": "> 100", "unit": "µM"}, {"measurement": "TGI", "setting": "[5]", "result": "> 100", "unit": "µM"}, {"measurement": "TGI", "setting": "[6]", "result": "> 100", "unit": "µM"}, {"measurement": "TGI", "setting": "[7]", "result": "> 100", "unit": "µM"}, {"measurement": "TGI", "setting": "[8]", "result": "> 100", "unit": "µM"}, {"measurement": "TGI", "setting": "[9]", "result": "> 100", "unit": "µM"}, {"measurement": "TGI", "setting": "[10]", "result": "> 100", "unit": "µM"}, {"measurement": "TGI", "setting": "[11]", "result": "> 100", "unit": "µM"}, {"measurement": "TGI", "setting": "[12]", "result": "> 100", "unit": "µM"}, {"measurement": "TGI", "setting": "[13]", "result": "> 100", "unit": "µM"}, {"measurement": "TGI", "setting": "[14]", "result": "> 100", "unit": "µM"}, {"measurement": "TGI", "setting": "[15]", "result": "> 100", "unit": "µM"}, {"measurement": "TGI", "setting": "[16]", "result": "> 100", "unit": "µM"}, {"measurement": "TGI", "setting": "[17]", "result": "> 100", "unit": "µM"}, {"measurement": "TGI", "setting": "[18]", "result": "> 100", "unit": "µM"}, {"measurement": "TGI", "setting": "[19]", "result": "> 100", "unit": "µM"}, {"measurement": "TGI", "setting": "[20]", "result": "> 100", "unit": "µM"}, {"measurement": "TGI", "setting": "[21]", "result": "> 100", "unit": "µM"}, {"measurement": "TGI", "setting": "[22]", "result": "> 100", "unit": "µM"}, {"measurement": "TGI", "setting": "[23]", "result": "> 100", "unit": "µM"}, {"measurement": "TGI", "setting": "[24]", "result": "> 100", "unit": "µM"}, {"measurement": "TGI", "setting": "[25]", "result": "> 100", "unit": "µM"}, {"measurement": "TGI", "setting": "[26]", "result": "> 100", "unit": "µM"}, {"measurement": "TGI", "setting": "[27]", "result": "> 100", "unit": "µM"}, {"measurement": "TGI", "setting": "[28]", "result": "> 100", "unit": "µM"}, {"measurement": "TGI", "setting": "[29]", "result": "> 100", "unit": "µM"}, {"measurement": "TGI", "setting": "[30]", "result": "> 100", "unit": "µM"}, {"measurement": "TGI", "setting": "[31]", "result": "> 100", "unit": "µM"}, {"measurement": "TGI", "setting": "[32]", "result": "> 100", "unit": "µM"}, {"measurement": "TGI", "setting": "[33]", "result": "> 100", "unit": "µM"}, {"measurement": "TGI", "setting": "[34]", "result": "> 100", "unit": "µM"}, {"measurement": "TGI", "setting": "[35]", "result": "> 100", "unit": "µM"}, {"measurement": "TGI", "setting": "[36]", "result": "> 100", "unit": "µM"}, {"measurement": "TGI", "setting": "[37]", "result": "> 100", "unit": "µM"}, {"measurement": "TGI", "setting": "[38]", "result": "> 100", "unit": "µM"}, {"measurement": "TGI", "setting": "[39]", "result": "> 100", "unit": "µM"}, {"measurement": "TGI", "setting": "[40]", "result": "> 100", "unit": "µM"}, {"measurement": "TGI", "setting": "[41]", "result": "> 100", "unit": "µM"}, {"measurement": "TGI", "setting": "[42]", "result": 86.9, "unit": "µM"}, {"measurement": "TGI", "setting": "[43]", "result": "> 100", "unit": "µM"}, {"measurement": "TGI", "setting": "[44]", "result": "> 100", "unit": "µM"}, {"measurement": "TGI", "setting": "[45]", "result": "> 100", "unit": "µM"}, {"measurement": "TGI", "setting": "[46]", "result": 66.6, "unit": "µM"}, {"measurement": "TGI", "setting": "[47]", "result": "> 100", "unit": "µM"}, {"measurement": "TGI", "setting": "[48]", "result": "> 100", "unit": "µM"}, {"measurement": "TGI", "setting": "[49]", "result": "> 100", "unit": "µM"}, {"measurement": "TGI", "setting": "[50]", "result": "> 100", "unit": "µM"}, {"measurement": "TGI", "setting": "[51]", "result": "> 100", "unit": "µM"}, {"measurement": "TGI", "setting": "[52]", "result": "> 100", "unit": "µM"}, {"measurement": "TGI", "setting": "[53]", "result": "> 100", "unit": "µM"}, {"measurement": "TGI", "setting": "[54]", "result": "> 100", "unit": "µM"}, {"measurement": "TGI", "setting": "[55]", "result": "> 100", "unit": "µM"}]}
